Holding throughout (type): functional, cell-based
For one assay, the system named is MDA-MB-231. Briefly: Cytotoxicity in human MDA-MB-231 cells assessed as reduction in cell viability incubated for 24 hrs by MTT assay. The settings on record: MDA-MB-231, 24 h.
Another assay concerns T47D. The assay is described as follows: Cytotoxicity in human T47D cells assessed as reduction in cell viability incubated for 24 hrs by MTT assay.
In a further assay the test system is MCF-12A. The assay is described as follows: Cytotoxicity in human MCF12A cells assessed as reduction in cell viability incubated for 24 hrs by MTT assay.
Assay [1] deals with MCF7. The assay is described as follows: Cytotoxicity in human MCF7 cells assessed as reduction in cell viability incubated for 24 hrs by MTT assay. As to conditions: MCF7, 24 h. (In general: Tetrazolium dyes change colour on reduction, which living cells bring about.)
The subject of the next assay is HL60/ADR. Briefly: Cytotoxicity in human HL60/ADR cells assessed as reduction in cell viability incubated for 24 hrs by MTT assay.
Another assay relates to MDA-MB-468. The assay is described as follows: Cytotoxicity in human MDA-MB-468 cells assessed as reduction in cell viability incubated for 24 hrs by MTT assay. As to conditions: MDA-MB-468, 24 h.
The test system of the next assay is HL-60. The assay is described as follows: Cytotoxicity in human HL60 cells assessed as reduction in cell viability incubated for 24 hrs by MTT assay. As to conditions: HL-60, 24 h.
Assay [2] deals with A549. Briefly: Cytotoxicity in human A549 cells assessed as reduction in cell viability incubated for 96 hrs by SRB assay. As to conditions: A549, 96 h.
Assay [3] concerns HT-29. The assay is described as follows: Cytotoxicity in human HT-29 cells assessed as reduction in cell viability incubated for 96 hrs by SRB assay. The settings on record: HT-29, 96 h. (The SRB assay estimates cell density from bound dye.)
Assay [4] has as its system SGC-7901. The assay is described as follows: Cytotoxicity in human SGC7901 cells assessed as reduction in cell viability incubated for 48 hrs by MTT assay. As to conditions: SGC-7901, 48 h.
For a further assay, the system named is SMMC-7721. The assay is described as follows: Cytotoxicity in human SMMC7721 cells assessed as reduction in cell viability incubated for 48 hrs by MTT assay. As to conditions: SMMC-7721, 48 h.
The test system of another assay is B16-F10. The assay is described as follows: Cytotoxicity in mouse B16F10 cells assessed as reduction in cell viability incubated for 72 hrs by MTT assay. The settings on record: B16-F10, 72 h.
Assay [5] deals with HepG2. The assay is described as follows: Cytotoxicity in human HepG2 cells assessed as reduction in cell viability incubated for 72 hrs by MTT assay. As to conditions: HepG2, 72 h.
Assay [6] deals with HT-29. The assay is described as follows: Cytotoxicity in human HT-29 cells assessed as reduction in cell viability incubated for 72 hrs by MTT assay. As to conditions: HT-29, 72 h.
Assay [7] concerns HeLa. Briefly: Cytotoxicity in human HeLa cells assessed as reduction in cell viability incubated for 72 hrs by CCK8 assay.
Assay [8] deals with A549. Briefly: Cytotoxicity in human A549 cells assessed as reduction in cell viability incubated for 72 hrs by CCK8 assay. The settings on record: A549, 72 h.
Assay [9] relates to MCF7. The assay is described as follows: Cytotoxicity in human MCF7 cells assessed as reduction in cell viability incubated for 72 hrs by CCK8 assay. The settings on record: MCF7, 72 h.
A further assay relates to PC-3. Briefly: Cytotoxicity in human PC3 cells assessed as reduction in cell viability incubated for 72 hrs by CCK8 assay. As to conditions: PC-3, 72 h.
The test system of assay [10] is SGC-7901. The assay is described as follows: Cytotoxicity in human SGC7901 cells assessed as reduction in cell viability incubated for 72 hrs by CCK8 assay. As to conditions: SGC-7901, 72 h.
The subject of assay [11] is HepG2. Briefly: Cytotoxicity in human HepG2 cells assessed as reduction in cell viability incubated for 72 hrs by CCK8 assay. As to conditions: HepG2, 72 h.
A short description of assay [12]: Cytotoxicity in human […] cells assessed as reduction in cell viability incubated for 72 hrs by MTT assay.
In assay [13] the test system is HepG2. Briefly: Cytotoxicity in human HepG2 cells assessed as reduction in cell viability incubated for 24 hrs by MTT assay. As to conditions: HepG2, 24 h.
In the next assay the test system is A-375. The assay is described as follows: Cytotoxicity in human A375 cells assessed as reduction in cell viability incubated for 24 hrs by MTT assay. As to conditions: A-375, 24 h.
The nature of assay [14]: Cytotoxicity in human SPC-A1 cells assessed as reduction in cell viability incubated for 24 hrs by MTT assay. As to conditions: SPCA1, 24 h.
The subject of a further assay is NCI-H446. The assay is described as follows: Cytotoxicity in human NCI-H446 cells assessed as reduction in cell viability incubated for 24 hrs by MTT assay. The settings on record: NCI-H446, 24 h.
Assay [15] has as its system HepG2. Briefly: Cytotoxicity in human HepG2 cells assessed as reduction in cell viability incubated for 48 hrs by MTT assay. The settings on record: HepG2, 48 h.
The test system of assay [16] is HeLa. The assay is described as follows: Cytotoxicity in human HeLa cells assessed as reduction in cell viability incubated for 48 hrs by MTT assay.

The term IC50 denotes the point on the concentration scale where inhibition reaches its midpoint. For the molecule `CC1(C)CC[C@@]23CC[C@]4(C)[C@@](OC2=O)([C@@H]3C1)[C@@H](Br)C[C@@H]1[C@@]2(C)CC/C(=N\O)C(C)(C)[C@@H]2CC[C@]14C`, the half-maximal inhibitory concentration (IC50) was greater than 50 µM with MDA-MB-231; 5.7 µM in the assay on T47D; 20.4 µM with MCF-12A; 6.58 µM in the assay on MCF7 [1]; 12.1 µM with HL60/ADR; 5.81 µM in the assay on MDA-MB-468. Also, in the assay with HL-60, the IC50 came to 10.2 µM.

Regarding `COC(=O)[C@]12CCC(C)(C)C[C@H]1C1=CC[C@@H]3[C@@]4(C)C[C@@H](OS(N)(=O)=O)[C@H](O)C(C)(C)[C@@H]4CC[C@@]3(C)[C@]1(C)CC2`, the figures for the IC50 in the assay with A549 [2] and in the assay with HT-29 [3] were 6.4 µM and 7.5 µM, respectively.

Take `CC1=C(O)C(=O)C=C2C1=CC=C1[C@@]2(C)CC[C@@]2(C)[C@@H]3C[C@](C)(C(=O)NCCO)CC[C@]3(C)CC[C@]12C`: the IC50 in the assay on SGC-7901 [4] came to 0.16 µM; with SMMC-7721, 0.3 µM.

As to `CC(=O)O[C@@H]1C[C@]2(C)[C@H]3CC=C4[C@@H]5CC(C)(C)CC[C@]5(C(=O)NCCCCCCCCCCC(=O)O)CC[C@@]4(C)[C@]3(C)CC[C@H]2C(C)(C)[C@H]1OC(C)=O`, the IC50 was 2.4 µM in the assay on B16-F10, 14.2 µM in the assay with HepG2 [5] and 3.1 µM with HT-29 [6].

Take `COC(=O)C(C)NC(=O)[C@]12CC[C@@H](C)[C@H](C)[C@H]1C1=CC[C@@H]3[C@@]4(C)C[C@@H](OC(C)=O)[C@H](OC(C)=O)[C@@](C)(COC(C)=O)[C@@H]4CC[C@@]3(C)[C@]1(C)CC2` (some centres not stated): the IC50 is 5.1 µM in the assay with HeLa [7]; 3.1 µM in the assay with A549 [8]; 3.9 µM in the assay on MCF7 [9]; 10.1 µM in the assay with PC-3; 9.2 µM with SGC-7901 [10]; 0.3 µM in the assay with HepG2 [11].

For the molecule `COC(=O)[C@]12CCC(C)(C)C[C@H]1C1=CC(=O)[C@@H]3[C@@]4(C)CC/C(=N\O)C(C)(C)[C@@H]4CC[C@@]3(C)[C@]1(C)CC2`, the half-inhibitory concentration (IC50) in the assay on MDA-MB-231 stood at 21.1 µM; in the assay on T47D, 10.1 µM; in the assay on MCF-12A, 25.7 µM; in the assay on MCF7 [1], 3.22 µM; in the assay with HL60/ADR, 3.58 µM; in the assay with MDA-MB-468 it was 4.25 µM. Also, the IC50 in the assay with HL-60 was found to be 3.72 µM.

For `C[C@H]1[C@H](C)CC[C@]2(C(=O)OCc3ccccc3)CC[C@]3(C)C(=CC[C@@H]4[C@@]5(C)CC[C@H](OC(=O)CCC(=O)O)C(C)(C)[C@@H]5CC[C@]43C)[C@H]12`, the concentration for half-maximal inhibition (IC50) in assay [12] amounted to 8.1 µM.

With `C[C@@H]1CC[C@]2(C(=O)O)CC[C@]3(C)C(=CC(=O)[C@@H]4[C@@]5(C)CC[C@H](O)[C@](C)(CO)[C@@H]5CC[C@]43C)[C@@H]2[C@]1(C)O`, the IC50 in the assay with HepG2 [13] is 7.33 µM; in the assay on SGC-7901 [4], 16.5 µM; with A-375, 16.6 to 17.4 µM; in assay [14], 86 µM; in the assay on NCI-H446 it was 11.4 µM; with HepG2 [15] it was 8.26 µM. The IC50 in the assay on HeLa [16] turned out to be 18.7 µM.

For the molecule `COC1=C(Br)C(=O)c2c([nH]c3c2C[C@]2(C)[C@H]4CC=C5[C@@H]6[C@@H](C)[C@H](C)CC[C@]6(C(=O)O)CC[C@@]5(C)[C@]4(C)CC[C@H]2C3(C)C)C1=O`, the figures for the IC50 in the assay with SMMC-7721 and in the assay on HepG2 [15] were 1.2 µM and 1.6 µM, respectively.

These data come from ChEMBL document CHEMBL4270495, “Oleanane-, ursane-, and quinone methide friedelane-type triterpenoid derivatives: Recent advances in cancer treatment” (Eur J Med Chem, 2017).
